The source of these data is patent US20240415894A1, “MITOCHONDRIAL AUGMENTATION THERAPY WITH STEM CELLS ENRICHED WITH FUNCTIONAL MITOCHONDRIA” (Minovia Therapeutics Ltd., priority 2018, published 2024).

The subject of this assay is Mouse fibroblast cells (3T3). Briefly: ATP level in Rotenone-treated mouse fibroblast cells (ATPlite kit). It is filed as cell-based. To be noted: 0.5 μM Rotenone for 4 hours; vs control cells. As to the method: Mouse fibroblast cells (104, 3T3) were either not treated (control) or treated with 0.5 μM Rotenone (Rotenone, mitochondrial complex I irreversible inhibitor, CAS number 83-79-4) for 4 hours, washed, and further treated with 0.02 mg/ml mouse placental mitochondria (Rotenone+Mitochondria) for 3 hours. The cells were washed and ATP level was determined using the Perkin Elmer ATPlite kit (FIG. 2), as previously shown in WO 2016/135723.

In the case of `C=C(C)[C@H]1Cc2c(ccc3c2O[C@@H]2COc4cc(OC)c(OC)cc4[C@@H]2C3=O)O1` [Rotenone], the “decrease of ATP levels” value was “about 50%”.
